According to the supplement of paper PMC10307832:

Columns and labels:
Test in all cases: relative viability (nuclei count vs DMSO), 5 days (fraction); higher = more cells survive
kb NB 142-70 + Foretinib = compound: C1CSC2=C(C(=O)N1)SC3=C2C=C(C=C3)O [kb NB 142-70] + COc1cc2c(Oc3ccc(NC(=O)C4(C(=O)Nc5ccc(F)cc5)CC4)cc3F)ccnc2cc1OCCCN1CCOCC1 [Foretinib] (partner 0.25 µM)
Outline: (§1)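 Five library-drug doses in √10 steps were combined with a fixed anchor-drug dose, or a single drug was given alone, by pin tool to lung cancer cell lines in 1536-well plates the day after seeding. Nuclei were stained and counted after 5 days. Relative viability is the nuclei count in treated wells over that in vehicle wells, taken as the median of duplicate plates.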

[1] = compound: NCC(=O)Nc1ccc(-n2nc(C(F)(F)F)cc2-c2ccc3c(ccc4ccccc43)c2)cc1 + CC(=O)c1c(C)c2cnc(Nc3ccc(N4CCNCC4)cn3)nc2n(C2CCCC2)c1=O [Palbociclib] (partner 0.5 µM)
Outline: as §1

[2] = compound: NCC(=O)Nc1ccc(-n2nc(C(F)(F)F)cc2-c2ccc3c(ccc4ccccc43)c2)cc1 + CC1(C)CCC(c2ccc(Cl)cc2)=C(CN2CCN(c3ccc(C(=O)NS(=O)(=O)c4ccc(N[C@H](CCN5CCOCC5)CSc5ccccc5)c(S(=O)(=O)C(F)(F)F)c4)cc3)CC2)C1 [Navitoclax] (partner 0.5 µM)
Outline: as §1

[3] = compound: NCC(=O)Nc1ccc(-n2nc(C(F)(F)F)cc2-c2ccc3c(ccc4ccccc43)c2)cc1 + Nc1ncn([C@H]2C[C@H](O)[C@@H](CO)O2)c(=O)n1 [Decitabine] (partner 2 µM)
Outline: as §1

NCI-H3122
relative viability (kb NB 142-70 + Foretinib; first compound 0.1 µM): 0.956 | relative viability (kb NB 142-70 + Foretinib; first compound 1 µM): 0.926 | relative viability (kb NB 142-70 + Foretinib; first compound 3.162 µM): 0.942 | relative viability ([1]; first compound 0.02 µM): 0.197 | relative viability ([1]; first compound 0.06325 µM): 0.182 | relative viability ([1]; first compound 0.2 µM): 0.179 | relative viability ([1]; first compound 0.6325 µM): 0.206 | relative viability ([1]; first compound 2 µM): 0.155 | relative viability ([2]; first compound 0.02 µM): 1.04 | relative viability ([2]; first compound 0.06325 µM): 1.01 | relative viability ([2]; first compound 0.2 µM): 1.03 | relative viability ([2]; first compound 0.6325 µM): 1.01 | relative viability ([2]; first compound 2 µM): 0.984 | relative viability ([3]; first compound 0.02 µM): 0.445 | relative viability ([3]; first compound 0.06325 µM): 0.418 | relative viability ([3]; first compound 0.2 µM): 0.495 | relative viability ([3]; first compound 0.6325 µM): 0.448 | relative viability ([3]; first compound 2 µM): 0.435

PC-3 [JPC-3]
relative viability (kb NB 142-70 + Foretinib; first compound 0.1 µM): 0.999 | relative viability (kb NB 142-70 + Foretinib; first compound 1 µM): 1.07 | relative viability (kb NB 142-70 + Foretinib; first compound 3.162 µM): 1.01 | relative viability ([1]; first compound 0.02 µM): 0.536 | relative viability ([1]; first compound 0.06325 µM): 0.561 | relative viability ([1]; first compound 0.2 µM): 0.578 | relative viability ([1]; first compound 0.6325 µM): 0.524 | relative viability ([1]; first compound 2 µM): 0.571 | relative viability ([2]; first compound 0.02 µM): 0.765 | relative viability ([2]; first compound 0.06325 µM): 0.842 | relative viability ([2]; first compound 0.2 µM): 0.718 | relative viability ([2]; first compound 0.6325 µM): 0.84 | relative viability ([2]; first compound 2 µM): 0.79 | relative viability ([3]; first compound 0.02 µM): 0.818 | relative viability ([3]; first compound 0.06325 µM): 0.854 | relative viability ([3]; first compound 0.2 µM): 0.768 | relative viability ([3]; first compound 0.6325 µM): 0.863 | relative viability ([3]; first compound 2 µM): 0.777

PC-14
relative viability (kb NB 142-70 + Foretinib; first compound 0.1 µM): 0.936 | relative viability (kb NB 142-70 + Foretinib; first compound 1 µM): 0.919 | relative viability (kb NB 142-70 + Foretinib; first compound 3.162 µM): 1.07 | relative viability ([1]; first compound 0.02 µM): 0.494 | relative viability ([1]; first compound 0.06325 µM): 0.557 | relative viability ([1]; first compound 0.6325 µM): 0.524 | relative viability ([1]; first compound 2 µM): 0.46 | relative viability ([2]; first compound 0.02 µM): 1.1 | relative viability ([2]; first compound 0.06325 µM): 0.979 | relative viability ([2]; first compound 0.2 µM): 1.15 | relative viability ([2]; first compound 0.6325 µM): 0.917 | relative viability ([2]; first compound 2 µM): 1.05 | relative viability ([3]; first compound 0.02 µM): 0.259 | relative viability ([3]; first compound 0.06325 µM): 0.236 | relative viability ([3]; first compound 0.2 µM): 0.209 | relative viability ([3]; first compound 0.6325 µM): 0.258 | relative viability ([3]; first compound 2 µM): 0.23

RERF-LC-KJ
relative viability (kb NB 142-70 + Foretinib; first compound 0.1 µM): 0.941 | relative viability (kb NB 142-70 + Foretinib; first compound 1 µM): 0.905 | relative viability (kb NB 142-70 + Foretinib; first compound 3.162 µM): 0.938 | relative viability ([1]; first compound 0.02 µM): 0.936 | relative viability ([1]; first compound 0.06325 µM): 1.2 | relative viability ([1]; first compound 0.2 µM): 1.03 | relative viability ([1]; first compound 0.6325 µM): 1.06 | relative viability ([1]; first compound 2 µM): 1.02 | relative viability ([2]; first compound 0.02 µM): 1.04 | relative viability ([2]; first compound 0.06325 µM): 1.24 | relative viability ([2]; first compound 0.2 µM): 1.08 | relative viability ([2]; first compound 0.6325 µM): 0.715 | relative viability ([2]; first compound 2 µM): 0.842 | relative viability ([3]; first compound 0.02 µM): 0.758 | relative viability ([3]; first compound 0.06325 µM): 0.791 | relative viability ([3]; first compound 0.2 µM): 0.673 | relative viability ([3]; first compound 0.6325 µM): 0.78 | relative viability ([3]; first compound 2 µM): 0.641

SK-LU-1
relative viability (kb NB 142-70 + Foretinib; first compound 0.1 µM): 0.782 | relative viability (kb NB 142-70 + Foretinib; first compound 1 µM): 0.732 | relative viability (kb NB 142-70 + Foretinib; first compound 3.162 µM): 0.346 | relative viability ([1]; first compound 0.02 µM): 0.447 | relative viability ([1]; first compound 0.06325 µM): 0.442 | relative viability ([1]; first compound 0.2 µM): 0.404 | relative viability ([1]; first compound 0.6325 µM): 0.372 | relative viability ([1]; first compound 2 µM): 0.434 | relative viability ([2]; first compound 0.02 µM): 0.852 | relative viability ([2]; first compound 0.06325 µM): 0.784 | relative viability ([2]; first compound 0.2 µM): 1.27 | relative viability ([2]; first compound 0.6325 µM): 0.909 | relative viability ([2]; first compound 2 µM): 0.878 | relative viability ([3]; first compound 0.02 µM): 0.6 | relative viability ([3]; first compound 0.06325 µM): 0.658 | relative viability ([3]; first compound 0.2 µM): 0.734 | relative viability ([3]; first compound 0.6325 µM): 0.615 | relative viability ([3]; first compound 2 µM): 0.633

SK-MES-1
relative viability (kb NB 142-70 + Foretinib; first compound 0.1 µM): 0.875 | relative viability (kb NB 142-70 + Foretinib; first compound 1 µM): 0.939 | relative viability (kb NB 142-70 + Foretinib; first compound 3.162 µM): 0.985 | relative viability ([1]; first compound 0.02 µM): 0.34 | relative viability ([1]; first compound 0.06325 µM): 0.294 | relative viability ([1]; first compound 0.2 µM): 0.329 | relative viability ([1]; first compound 0.6325 µM): 0.325 | relative viability ([1]; first compound 2 µM): 0.387 | relative viability ([2]; first compound 0.02 µM): 1.31 | relative viability ([2]; first compound 0.06325 µM): 1.2 | relative viability ([2]; first compound 0.2 µM): 1.29 | relative viability ([2]; first compound 0.6325 µM): 1.2 | relative viability ([2]; first compound 2 µM): 1.16 | relative viability ([3]; first compound 0.02 µM): 0.386 | relative viability ([3]; first compound 0.06325 µM): 0.36 | relative viability ([3]; first compound 0.2 µM): 0.461 | relative viability ([3]; first compound 0.6325 µM): 0.359 | relative viability ([3]; first compound 2 µM): 0.4

SW 1573
relative viability (kb NB 142-70 + Foretinib; first compound 0.1 µM): 0.892 | relative viability (kb NB 142-70 + Foretinib; first compound 1 µM): 0.797 | relative viability (kb NB 142-70 + Foretinib; first compound 3.162 µM): 0.605 | relative viability ([1]; first compound 0.02 µM): 0.409 | relative viability ([1]; first compound 0.06325 µM): 0.466 | relative viability ([1]; first compound 0.2 µM): 0.344 | relative viability ([1]; first compound 0.6325 µM): 0.384 | relative viability ([1]; first compound 2 µM): 0.36 | relative viability ([2]; first compound 0.02 µM): 1.03 | relative viability ([2]; first compound 0.06325 µM): 0.969 | relative viability ([2]; first compound 0.2 µM): 0.867 | relative viability ([2]; first compound 0.6325 µM): 0.905 | relative viability ([2]; first compound 2 µM): 0.942 | relative viability ([3]; first compound 0.02 µM): 0.496 | relative viability ([3]; first compound 0.06325 µM): 0.524 | relative viability ([3]; first compound 0.2 µM): 0.524 | relative viability ([3]; first compound 0.6325 µM): 0.518 | relative viability ([3]; first compound 2 µM): 0.436
